Measurements: the supplement of paper PMC10949913

Experiments:
Settings in all cases: 48 h
NCI-H295R [1] = experiment: area under concentration-response curve (viability) (AUC (a.u.)); higher = less active
Outline: (§1)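 Concentration-response curves were fitted to obtain AC50 and area under the curve, keeping inhibitory or non-responding curve classes only. Data came from CellTiter-Glo luminescence, normalised per plate to vehicle and empty-well controls, in three adrenocortical carcinoma cell lines. These were treated in 1,536-well plates with library compounds at 11 concentrations and read after 48 h.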

CU-ACC2 [2] = experiment: as above
Outline: as §1

NCI-H295R [3] = experiment: AC50 viability; higher = less potent
Outline: as §1

CU-ACC2 [4] = experiment: AC50 viability; higher = less potent
Outline: as §1

CU-ACC1 = experiment: area under concentration-response curve (viability) (AUC (a.u.)); higher = less active
Outline: as §1

Structure (SMILES)	area under concentration-response curve (NCI-H295R [1])	area under concentration-response curve (CU-ACC2 [2])	AC50 viability (NCI-H295R [3])	AC50 viability (CU-ACC2 [4])	area under concentration-response curve (CU-ACC1)
O=C(Nc1cccc(Cl)c1)Nc1ncc(CCNc2ncnc3ccsc23)s1	342	481	33.2 µM	9.34 µM	–
C=C1C[C@@H]2CC[C@@]34C[C@H]5O[C@H]6[C@@H](O3)[C@H]3O[C@H](CC[C@@H]3O[C@H]6[C@H]5O4)CC(=O)C[C@@H]3[C@@H](OC)[C@@H](C[C@H](O)CN)O[C@H]3C[C@H]3O[C@@H](CC[C@@H]1O2)C[C@@H](C)C3=C	436	461	0.00959 µM	3.4 µM	–
CN[C@@H](C)C(=O)N[C@H](C(=O)N1CCC[C@H]1C(=O)Nc1snnc1-c1ccccc1)C1CCCCC1	401	405	–	1.66 µM	413
CCN(CC)C(=S)SSC(=S)N(CC)CC	472	465	–	14.8 µM	366
C/C(=N\NC(=S)N1CCC1)c1ccccn1	396	453	–	0.417 µM	292
NC(=O)c1ccc2[nH]ccc2c1	395	360	–	0.59 µM	345
CN(C)C(=O)c1cc2cnc(Nc3ccc(N4CCNCC4)cn3)nc2n1C1CCCC1	474	439	–	33.2 µM	434
CC(C)OC(=O)[C@H](C)N[P@](=O)(OC[C@H]1O[C@@H](N2\C=C/C(=O)NC2=O)[C@](C)(F)[C@@H]1O)OC3=CC=CC=C3	386	414	–	5.9 µM	388
C=CC(=O)N1CCC[C@H](n2c(=O)n(-c3ccc(Oc4ccccc4)cc3)c3c(N)ncnc32)C1	410	410	–	20.9 µM	352
COc1cc(OC)c(NC(=O)Nc2cc(C)on2)cc1Cl	432	484	–	23.5 µM	408
Cc1ccc(Nc2ncc3c(n2)N(C)C(=O)N(c2cc(NC(=O)c4cccc(C(F)(F)F)c4)ccc2C)C3)cn1	532	504	–	5.25 µM	501
O=C(NCc1ccc([S+](=O)([O-])c2cccc(C(F)(F)F)c2)cc1)c1cnc2[nH]ncc2c1	407	362	–	0.0186 µM	347
CC1(C)SCCN([S+](=O)([O-])c2ccc(OCC#CCO)cc2)[C@H]1C(=O)NO	421	437	–	2.95 µM	446
CC(C)N(CCC(=O)c1ccc2ccccc2c1)Cc1ccccc1	603	609	–	20.9 µM	557
CC(/C=C/C(=O)NO)=C\[C@@H](C)C(=O)c1ccc(N(C)C)cc1	487	463	–	1.05 µM	417
O=C(NCCCNc1nc(Nc2cccc(CN3CCOCC3)c2)ncc1C1CC1)C1CCC1	220	452	–	33.2 µM	–
CONC(=O)c1ccccc1Nc1cc(Nc2cc(C)nn2C(C)C)ncc1Cl	–	459	–	16.6 µM	455
C=C(C)[C@@H]1CCC(C)=C[C@H]1c1c(O)cc(CCCCC)cc1O	–	489	–	18.6 µM	467
COc1ccc(-c2cc3nccn3c(Nc3ncccc3C(N)=O)n2)cc1OC	427	415	–	6.61 µM	436
CC(C)Oc1cc(Nc2nc(N[C@@H](C)c3ccc(F)cn3)ncc2Cl)n[nH]1	353	394	–	1.32 µM	325
CC(C)c1cccc(C(C)C)c1O	415	400	–	14.8 µM	362
N#Cc1ccnc(Nc2cc(C3CCN(C4COC4)CC3)cc(N3CCC(F)(F)C3)n2)c1	471	467	–	1.66 µM	458
CN(C1=CC=CC=C1)C(=O)C/2=C(O)/C3=C(C=CC=C3)N(C)C2=O	317	399	–	37.2 µM	344
CC#CC(=O)N1CC[C@@H](n2c(=O)n(-c3ccc(Oc4ccccc4)cc3)c3c(N)ncnc32)C1	–	428	–	13.2 µM	425
CC(C)(C)c1cc(NC(=O)Nc2ccc(-c3cn4c(n3)sc3cc(OCCN5CCOCC5)ccc34)cc2)no1	511	539	–	3.72 µM	489
COc1cc(Nc2cnc(C#N)c(O[C@H](C)CN(C)C)n2)ncc1-c1cnn(C)c1	–	399	–	10.5 µM	312
CC1(C)CNc2cc(NC(=O)c3cccnc3NCc3ccncc3)ccc21	373	317	–	0.263 µM	379

Structure (SMILES)	area under concentration-response curve (NCI-H295R [1])	area under concentration-response curve (CU-ACC2 [2])	AC50 viability (NCI-H295R [3])	AC50 viability (CU-ACC2 [4])	area under concentration-response curve (CU-ACC1)
CO[C@@H]1C(N(C)C(=O)c2ccccc2)C[C@H]2O[C@]1(C)n1c3ccccc3c3c4c(c5c6ccccc6n2c5c31)C(=O)NC4=O (some centres undefined)	–	286	–	0.186 µM	362
O=C(Nc1ccc([S+](=O)([O-])N2CCOCC2)cc1)c1cc(Cl)ccc1N[S+](=O)([O-])c1ccc(Cl)s1	–	530	–	18.6 µM	481
C=CC(=O)Nc1cccc(Nc2nc(Nc3ccc(OCCOC)cc3)ncc2F)c1	545	597	–	20.9 µM	–
CN1CCN(CCOc2cc(OC3CCOCC3)c3c(Nc4c(Cl)ccc5c4OCO5)ncnc3c2)CC1	–	548	–	23.5 µM	547
CCC1=C2CN3C(=O)\C4=C(/C=C3/C2=NC5=CC=C(O)C=C15)[C@@](O)(CC)C(=O)OC4	524	447	–	0.468 µM	401
Nc1ccc(C(=O)Nc2cccc(-c3nc(N4CCOCC4)c4oc5ncccc5c4n3)c2)cn1	396	414	–	1.48 µM	434
CC(C)(N)c1ccc(-c2nc3ccccc3nc2-c2ccccc2)cc1	354	297	–	0.372 µM	336
C\C1=C(\[C@@H](OC2=C1C=CC(=C2)O)C3=CC=C(OCCN4CCCCC4)C=C3)C5=CC=C(O)C=C5	–	333	–	0.295 µM	296
COc1ccc2c(c1)[C@]1(C[C@H]1c1ccc3c(/C=C/c4ccc(CN5C[C@@H](C)O[C@@H](C)C5)cc4)n[nH]c3c1)C(=O)N2	–	344	–	1.86 µM	384
CN(C)C1=CC=C(C=C1)C(C2=CC=C(C=C2)N(C)C)=C/3\C=C/C(/C=C3)=[N+](C)C	–	–	4.17 µM	4.17 µM	–
CCOc1cc(N2CCC(O)CC2)ccc1Nc1ncc2c(n1)N(C)c1ccccc1C(=O)N2C	479	525	–	20.9 µM	450
C[C@]1(O)CC(C1)C2=NC(=C3[N]2C=CN=C3N)C4=CC5=C(C=C4)C=CC(=N5)C6=CC=CC=C6 (centres undefined)	373	411	–	18.6 µM	–
Cn1ncc(NC(=O)c2nc(-c3c(F)cccc3F)sc2N)c1N1CC[C@@H](N)[C@H](F)CC1	516	500	–	18.6 µM	525
COc1c(C)cnc(Cn2cnc3c(Cl)nc(N)nc32)c1C	–	378	–	0.661 µM	361
CCOc1cc2ncc(C#N)c(Nc3ccc(OCc4ccccn4)c(Cl)c3)c2cc1NC(=O)/C=C/CN(C)C	543	572	–	16.6 µM	562
Cc1cc(OCc2nnc(SC3CCCC3)n2-c2cccnc2)ccc1-c1ccc([S+](C)(=O)[O-])cc1	362	324	–	2.35 µM	271
CC(C)(C)OC(=O)CN(Cc1ccc(Cl)cc1)Cc1ccc([N+](=O)[O-])s1	405	479	–	37.2 µM	410
N[S+](=O)([O-])c1ccc(Cc2c(-c3cccc(-c4ccccc4)c3)nn(-c3nc(C(=O)O)cs3)c2CC2CC2)cc1	405	388	–	5.9 µM	373
Cn1cc(/C=C2\C(=O)Nc3cccnc32)c2ccccc21	373	320	–	0.105 µM	349
c1cc(CN2CCCNCCNCCCNCC2)ccc1CN1CCCNCCNCCCNCC1	294	337	–	0.0934 µM	336
Cc1c(NC(=O)OC[C@@H]2COCCN2)cn2ncnc(Nc3ccc4c(cnn4Cc4cccc(F)c4)c3)c12	–	544	–	18.6 µM	393
CC(C)(C)C(=O)Oc1ccc([S+](=O)([O-])Nc2ccccc2C(=O)NCC(=O)O)cc1	348	313	–	0.105 µM	318
C=CC[C@@H]1/C=C(\C)C[C@H](C)C[C@H](OC)[C@H]2O[C@@](O)(C(=O)C(=O)N3CCCC[C@H]3C(=O)O[C@H](/C(C)=C/[C@@H]3CC[C@@H](O)[C@H](OC)C3)[C@H](C)[C@@H](O)CC1=O)[C@H](C)C[C@@H]2OC	–	390	–	18.6 µM	383
COC(=O)Nc1nc2cc(Sc3ccccc3)ccc2[nH]1	431	393	–	5.25 µM	368
O=C(Nc1ccc2[nH]nc(-c3ccncc3)c2c1)[C@@H]1CCN(CC(=O)N2CCN(c3ccc(-c4ncccn4)cc3)CC2)C1	482	476	–	11.8 µM	444
CCN(CC)CCOc1ccc(/C(=C(\Cl)c2ccccc2)c2ccccc2)cc1	131	203	–	10.5 µM	–
